This is an account of results in patent publication EP0745595A1, “3-(3-Aryloxyphenyl)-1-(substituted methyl)-s-triazine-2,4,6-oxo or thiotrione herbicidal agents” (American Cyanamid Company, priority 1995, dated 1996).

Common to all, as to type: in vivo
The subject of assay [1] is ORYZA SATIVA, L. TEBONNET
As to the kind of experiment: Preemergence herbicidal evaluation, ORYSAT (Rice, Tebonnet). The note with it: for ORYSAT herbicidal rating: rated four to five weeks after treatment. In outline:
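Seeds of rice (Oryza sativa, Tebonnet) were mixed with potting soil and sown on about one inch of soil in pint cups, then treated preemergence. Cups sat on greenhouse benches, watered and tended by standard greenhouse practice. Four to five weeks after treatment, plants were visually scored on a 0-9 scale relative to a control.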

For assay [2], the system named is ABUTILON THEOPHRASTI, MEDIC. Put plainly: Preemergence herbicidal evaluation, ABUTH (Velvetleaf). As to conditions: for ABUTH herbicidal rating: rated four to five weeks after treatment. Put shortly:
(§1)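 Seeds mixed with potting soil were planted on about one inch of soil in cups, then sprayed with aqueous acetone solution of test compound at about 0.125 to 0.50 kg per hectare. Plants grown under greenhouse conditions; visual rating on a 0-9 scale versus untreated control at 4-5 weeks.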

The test system of assay [3] is IPOMOEA SPP. As to the kind of experiment: Preemergence herbicidal evaluation, IPOSS (Morningglory spp.). The note with it: for IPOSS herbicidal rating: rated four to five weeks after treatment. In outline:
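Seeds of morningglory (Ipomoea spp.) were mixed with potting soil and sown on roughly one inch of soil in pint cups for a preemergence herbicide test. The cups were put on greenhouse benches, watered, and maintained by standard greenhouse practice. Four to five weeks after treatment each cup was scored visually on a 0-9 scale against a control.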

For assay [4], the system named is TRITICUM AESTIVUM, CV. APOLLO. Put plainly: Preemergence herbicidal evaluation, TRZAWO (Wheat, Winter, CV. APOLLO). As to conditions: for TRZAWO herbicidal rating: rated four to five weeks after treatment. In outline: as §1
Assay [5] relates to ECHINOCHLOA CRUS-GALLI, (L) BEAU. As to the kind of experiment: Preemergence herbicidal evaluation, ECHCG (Barnyardgrass). The note with it: for ECHCG herbicidal rating: rated four to five weeks after treatment. In outline: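 Barnyardgrass seeds were mixed with potting soil and planted on about one inch of soil in pint cups for preemergence testing. Treated cups were kept on greenhouse benches, watered and maintained by standard greenhouse practice. After four to five weeks, each cup was visually rated on a 0-9 scale against an untreated control.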

Turning to `COC(=O)Cn1c(=O)n(C)c(=O)n(-c2cc(Oc3ccc(SC)cc3Cl)ccc2[N+](=O)[O-])c1=O` [Compound 34, Methyl 3-{5-[2-chloro-4-(methylthio)-phenoxy]-2-nitrophenyl}tetrahydro-5-methyl-2,4,6-trioxo-s-triazine-1(2H)-acetate], the ORYSAT herbicidal rating in assay [1] (Rate 0.125 kg/ha), in assay [1] (Rate 0.250 kg/ha) and in assay [1] (Rate 0.500 kg/ha) was 0.0 throughout. For the same compound, the ABUTH herbicidal rating in assay [2] (Rate 0.125 kg/ha), in assay [2] (Rate 0.250 kg/ha) and in assay [2] (Rate 0.500 kg/ha) was 0.0 throughout. Also, the IPOSS herbicidal rating in assay [3] (Rate 0.125 kg/ha), in assay [3] (Rate 0.250 kg/ha) and in assay [3] (Rate 0.500 kg/ha) was 0.0 each time. The TRZAWO herbicidal rating in assay [4] (Rate 0.125 kg/ha), in assay [4] (Rate 0.250 kg/ha) and in assay [4] (Rate 0.500 kg/ha) was 0.0 each time. The ECHCG herbicidal rating in assay [5] (Rate 0.125 kg/ha), in assay [5] (Rate 0.250 kg/ha) and in assay [5] (Rate 0.500 kg/ha) was 0.0 throughout.
In assay [1] (Rate 0.500 kg/ha), `COC(=O)Cn1c(=O)n(C)c(=O)n(-c2cc(Oc3cc(Cl)cc(Cl)c3)ccc2[N+](=O)[O-])c1=O` [Compound 35, Methyl 3-[5-(3,5-dichlorophenoxy)-2-nitrophenyl]tetrahydro-5-methyl-2,4,6-trioxo-s-triazine-1(2H)-acetate] showed an ORYSAT herbicidal rating of 0.0. This compound also returned an ABUTH herbicidal rating in assay [2] (Rate 0.500 kg/ha) of 0.0. In assay [3] (Rate 0.500 kg/ha), this compound returned an IPOSS herbicidal rating of 0.0. Also, the TRZAWO herbicidal rating in assay [4] (Rate 0.500 kg/ha) turned out to be 0.0. The compound also displayed an ECHCG herbicidal rating in assay [5] (Rate 0.500 kg/ha) of 0.0.
Consider `COC(=O)Cn1c(=O)n(C)c(=O)n(-c2cc(Oc3ccccn3)ccc2[N+](=O)[O-])c1=O` [Compound 38, Methyl tetrahydro-3-methyl-5-[2-nitro-5-(2-pyridyloxy)phenyl]-2,4,6-trioxo-s-triazine-1(2H)-acetate], for which, in assay [1] (Rate 0.500 kg/ha), the ORYSAT herbicidal rating was 3.0. This compound gave an ABUTH herbicidal rating in assay [2] (Rate 0.500 kg/ha) of 0.0. For the same compound, the IPOSS herbicidal rating in assay [3] (Rate 0.500 kg/ha) was 0.0. The compound also came in with a TRZAWO herbicidal rating in assay [4] (Rate 0.500 kg/ha) of 1.0. Also, the ECHCG herbicidal rating in assay [5] (Rate 0.500 kg/ha) stood at 0.0.
Take “Methyl 3-{2-[(2-chloro-α,α,α,-trifluoro-p-tolyl)oxy]phenyl}tetrahydro-5-methyl-2,4,6-trioxo-s-triazine-1(2H)-acetate [Compound 28]”: the ORYSAT in assay [1] (Rate 0.125 kg/ha) is recorded as 1.0; in assay [1] (Rate 0.250 kg/ha), 2.0; in assay [1] (Rate 0.500 kg/ha) it was 4.0; in assay [1] (Rate 1.000 kg/ha) it was 4.0. Besides, the ORYSAT herbicidal rating stood at 1.0 in assay [1] (Rate 0.125 kg/ha), 2.0 in assay [1] (Rate 0.250 kg/ha) and 4.0 in assay [1] (Rate 0.500 kg/ha). In addition, the ABUTH in assay [2] (Rate 0.125 kg/ha) is 0.0; in assay [2] (Rate 0.250 kg/ha), 3.0; in assay [2] (Rate 0.500 kg/ha) it was 4.0; in assay [2] (Rate 1.000 kg/ha), 7.0. In addition, the results for the ABUTH herbicidal rating in assay [2] (Rate 0.125 kg/ha), in assay [2] (Rate 0.250 kg/ha) and in assay [2] (Rate 0.500 kg/ha) were 0.0, 3.0 and 4.0, respectively. Moreover, the IPOSS in assay [3] (Rate 0.125 kg/ha) is given as 2.0; in assay [3] (Rate 0.250 kg/ha) it was 3.0; in assay [3] (Rate 0.500 kg/ha) it was 6.0; in assay [3] (Rate 1.000 kg/ha), 7.0. The results for the IPOSS herbicidal rating in assay [3] (Rate 0.125 kg/ha), in assay [3] (Rate 0.250 kg/ha) and in assay [3] (Rate 0.500 kg/ha) were 2.0, 3.0 and 6.0, respectively. Moreover, the TRZAWO in assay [4] (Rate 0.125 kg/ha) is on record as 0.0; in assay [4] (Rate 0.250 kg/ha), 0.0; in assay [4] (Rate 0.500 kg/ha) it was 1.0; in assay [4] (Rate 1.000 kg/ha) it was 1.0. In addition, the TRZAWO herbicidal rating in assay [4] (Rate 0.125 kg/ha) came to 0.0; in assay [4] (Rate 0.250 kg/ha), 0.0; in assay [4] (Rate 0.500 kg/ha), 1.0. For the same compound, the ECHCG was 0.0 in assay [5] (Rate 0.125 kg/ha), 2.0 in assay [5] (Rate 0.250 kg/ha), 3.0 in assay [5] (Rate 0.500 kg/ha) and 6.0 in assay [5] (Rate 1.000 kg/ha). Moreover, the ECHCG herbicidal rating amounted to 0.0 in assay [5] (Rate 0.125 kg/ha), 2.0 in assay [5] (Rate 0.250 kg/ha) and 3.0 in assay [5] (Rate 0.500 kg/ha).
